Source: patent EP4768499A1, “MACROCYCLIC PEPTIDE COMPOUND HAVING CELL MEMBRANE PERMEABILITY AND METABOLIC STABILITY, AND LIBRARY CONTAINING SAME” (Chugai Seiyaku Kabushiki Kaisha, priority 2023, dated 2025)
Starred links: 1 amine or outer side, 2 acyl side, 3 side chain; linkers in the order of their positions; H or OH if unused. Positions of bridges follow the written chain, without caps; N, C: chain ends. Non-standard residues stand in square brackets, D forms with d. Residues, ends and D or L forms follow the SMILES beside them. *: point of attachment. NMeF = CN[C@@H](Cc1ccccc1)C(=O)O; NMeI = CC[C@H](C)[C@H](NC)C(=O)O; hPhe = N[C@@H](CCc1ccccc1)C(=O)O; NMeβAla = CN(CCC(=O)[*:2])[*:1]; NMeD = CN[C@@H](CC(=O)O)C(=O)O; NMeL = CN[C@@H](CC(C)C)C(=O)O; NMeV = CN[C@H](C(=O)O)C(C)C; d(β3hA) = C[C@@H](N)CC(=O)O; NMeA = CN[C@@H](C)C(=O)O; Piperidide = C1CCN(*)CC1; NBuGly = CCCCNCC(=O)O; βAla = NCCC(=O)O; Sar = CNCC(=O)O; tBu = CC(C)(C)*

Legend:
[1] = Membrane permeability test using Caco-2 cells with preincubation; format: in vitro ADME; settings: Caco-2; preincubation 20 to 24 hours; Apical FaSSIF/HBSS pH 6.0, Basal HBSS 4% BSA pH 7.4; 180 minutes; read-out: Caco2 Papp
[2] = test system: Caco-2 cells; assay: as above; format: in vitro ADME; settings: Caco-2 cells, preincubation 20 to 24 hours; apical FaSSIF/HBSS 1% DMSO pH 6.0, basal HBSS 4% BSA pH 7.4; basal sample at 180 minutes
[3] = Metabolic stability test: liver microsomal stability assay; format: in vitro ADME, mouse; settings: mouse liver microsomes 0.5 mg protein/mL, compound 1 µM; for microsomal CLint at 1 µM: male, pH 7.4, presence of NADPH, read-out: Mouse Hepatic Microsome CLh,int NADPH(+); for Mouse Hepatic Microsome CLh,int NADPH(-): absence of NADPH

Compound | Papp A→B [1] [×10⁻⁶ cm/s] | Caco2 Papp (10^-6 cm/sec) [2] | microsomal CLint at 1 µM [3] [µL/min/mg] | Mouse Hepatic Microsome CLh,int NADPH(-) [3] [µL/min/mg Protein]
CCCCN1CC(=O)N[C@@H](COC(C)(C)C)C(=O)N(C)[C@@H](Cc2ccccc2)C(=O)N[C@@H](CC(C)C)C(=O)N(C)[C@@H](C(C)C)C(=O)N[C@H](C(=O)N2CCCCC2)CC(=O)N[C@H](C(C)C)C(=O)N(C)[C@@H](Cc2ccccc2)C(=O)N[C@@H](CC(C)C)C(=O)N(C)[C@@H](C(C)C)C(=O)N(C)[C@@H](CC(C)C)C(=O)N[C@@H]([C@@H](C)O)C(=O)N(C)[C@@H](CC(C)C)C1=O [pd100] ([dV][NMeF]L[NMeV][NMeL]T[NMeL][NBuGly]S(tBu)[NMeF]L[NMeV]D-Piperidide; lactam N-13) | < 0.12 | <0.12 10^-6 cm/sec | 39.6 | 28.4
CCCCN1CC(=O)N(C)[C@@H](Cc2ccccc2)C(=O)N[C@@H](COC(C)(C)C)C(=O)N(C)[C@@H](CC(C)C)C(=O)NCCC(=O)N(C)[C@@H](C)C(=O)N[C@@H]([C@@H](C)CC)C(=O)N(C)[C@@H](CC(C)C)C(=O)N[C@@H](C(C)C)C(=O)N(C)[C@H](C(=O)N2CCCCC2)CC(=O)N(C)CCC(=O)N(C)[C@@H](CC(C)C)C(=O)N[C@@H]([C@@H](C)CC)C(=O)N(C)[C@@H](Cc2ccccc2)C1=O [pd077] ([NMeβAla][NMeL]I[NMeF][NBuGly][NMeF]S(tBu)[NMeL][βAla][NMeA]I[NMeL]V[NMeD]-Piperidide; lactam N-14) | 0.32 | 0.32 10^-6 cm/sec | 40 | 40.3
CCCCN1CC(=O)N(C)[C@@H](CC(C)C)C(=O)N[C@@H]([C@@H](C)O)C(=O)N(C)[C@@H](C)C(=O)N2CCC[C@H]2C(=O)N[C@@H](CCc2ccccc2)C(=O)N[C@@H]([C@@H](C)CC)C(=O)N(C)[C@H](C(=O)N2CCCCC2)CC(=O)N(C)[C@@H](CC(C)C)C(=O)N[C@@H](COC(C)(C)C)C(=O)N(C)[C@@H](C(C)C)C(=O)N[C@@H]([C@@H](C)CC)C(=O)N2CCC[C@H]2C(=O)N[C@@H](C(C)C)C1=O [pd087] ([NMeL]S(tBu)[NMeV]IPV[NBuGly][NMeL]T[NMeA]P[hPhe]I[NMeD]-Piperidide; lactam N-14) | < 0.07 | <0.07 10^-6 cm/sec | 31.8 | 29.0
CC[C@H](C)[C@@H]1NC(=O)[C@H](CC(C)C)N(C)C(=O)[C@H](CC(C)C)NC(=O)[C@H](C)N(C)C(=O)C[C@@H](C)NC(=O)[C@H](CC(C)C)NC(=O)[C@H](CC(C)C)N(C)C(=O)CN(C)C(=O)[C@H](C(C)C)NC(=O)[C@H]([C@@H](C)CC)N(C)C(=O)[C@H](CC(C)C)N(C)C(=O)[C@H](C)NC(=O)[C@H](Cc2ccccc2)N(C)C1=O [pd127] (cyclo(A[NMeL][NMeI]V[Sar][NMeL]L[d(β3hA)][NMeA]L[NMeL]I[NMeF])) | 0.36 | 0.36 10^-6 cm/sec | 41.6 | 28.0
CCCCN1CC(=O)N(C)[C@@H](CC(C)C)C(=O)N[C@@H]([C@@H](C)O)C(=O)N(C)[C@@H](CC(C)C)C(=O)N2CCC[C@H]2C(=O)N[C@@H](CCc2ccccc2)C(=O)N[C@@H]([C@@H](C)CC)C(=O)N(C)[C@H](C(=O)N2CCCCC2)CC(=O)N(C)[C@@H](CC(C)C)C(=O)N[C@@H](COC(C)(C)C)C(=O)N(C)[C@@H](C(C)C)C(=O)N[C@@H]([C@@H](C)CC)C(=O)N2CCC[C@H]2C1=O [pd159] ([NMeL]S(tBu)[NMeV]IP[NBuGly][NMeL]T[NMeL]P[hPhe]I[NMeD]-Piperidide; lactam N-13) | 0.64 | 0.64 10^-6 cm/sec | 49.5 | 42.0
